Data reported in patent US20080241257A1, “Biodegradable Nanoparticles Incorporating Highly Hydrophilic Positively Charged Drugs” (THE BOARD OF TRUSTEES OF THE UNIVERSITY OF ILLINOIS, priority 2003, published 2008).

Test system: M. tuberculosis Erdman
Experiment: M. tuberculosis chronic infection mouse model, CFU in the lungs
Type: in vivo, BALB/c mice

For [H]/N=C(/N)N[C@H]1[C@H](O)[C@@H](O)[C@H](O[C@@H]2O[C@@H](C)[C@](O)(C=O)[C@H]2O[C@@H]2O[C@@H](CO)[C@H](O)[C@@H](O)[C@@H]2NC)[C@@H](N/C(N)=N\[H])[C@@H]1O [SM, streptomycin], the “log CFU in the lungs” value (100 mg/kg injected subcutaneously (solution in water) daily for 3 weeks, control 6.88) was 6.13 log CFU and the “reduction in growth of the TB bacilli compared to the control group” value (injected subcutaneously, 100 mg/kg daily 3 weeks, p<0.01) was “one”.
